Laboratory results reported in patent US12605358B2, “Composition for preventing or treating nervous system diseases comprising compound that inhibits mTOR signaling pathway as active ingredient” (ALIAD BIOPHARMA, priority 2021, dated 2026).

Legend:
Format in all cases: in vivo
5xFAD transgenic mice [1] = assay: Morris water maze test; conditions: 5, 10 and 20 mg/kg groups; similar to the normal group
Method: 5xFAD animals were administered with HN-1703 at three doses for 14 days to male heterozygotes aged 6 months (all born within 3 days). The behaviors of mice were measured in a dark cycle in which the mice were active while alternating light and dark in a 12-hour cycle in a breeding room chamber, and the mice were freely accessible to food and water and bred in compliance with experimental animal ethical guidelines of Kyung Hee University. […] Behavioral measures were measured in Y-maze, Morris Water Maze, and Passive Avoidance test for 18 days in sequence.
A Morris water maze test designed by Richard Morris to test spatial memory was performed on a round and rust-free pool with a white inner-surface (diameter 120 cm; height 60 cm). […] On the first day, the mice were trained in free swimming for 1 minute without a platform foothold, and from the second day, while the mice were trained for 1 minute to find the platform using a spatial clue above the water tank by dissolving dye in water so as not to see the foothold, 6 mice or more were set to a group and put into a quadrant once after taking a sufficient rest, and measured by a video camera. […] The captured video pictures were analyzed with a video tracking system (Ethovision water maze program, Noldus Information Technology, Wageningen, Netherlands). […]

5xFAD transgenic mice [2] = assay: Senile plaques removal, Thioflavin-S staining of brain slices
Method: (§1) 5xFAD animals were administered with HN-1703 at three doses for 14 days to male heterozygotes aged 6 months (all born within 3 days). The behaviors of mice were measured in a dark cycle in which the mice were active while alternating light and dark in a 12-hour cycle in a breeding room chamber, and the mice were freely accessible to food and water and bred in compliance with experimental animal ethical guidelines of Kyung Hee University. In each group, the HN-1703 was intraperitoneally injected at the same time once a day in a volume of 100 μl to 12 mice in a normal group (wild type littermate), 9 5xFAD mice in a vehicle (DMSO administration), 8 5xFAD mice in a 5 mg/kg administered group, 9 5xFAD mice in a 10 mg/kg administered group, and 9 5xFAD mice in a 20 mg/kg administered group. […] In a behavioral measurement room, humidity (40 to 60%) and temperature (22 to 26° C.) were maintained, and reflected light was maintained to avoid sound and light effects. Behavioral measures were measured in Y-maze, Morris Water Maze, and Passive Avoidance test for 18 days in sequence.
(§2) A brain slice immunostaining method was modified and used as described in Heo H et al. (J Ethnopharmacol, 2009). Mice were transcardially perfused with 4% PFA. After being immersed and fixed in 4% PFA for 4 hours, the brain tissue was unfrozen in 30% sucrose, frozen in an optimal cutting temperature (OCT) mixture, and stored at −80° C. Brain tissue slices were sectioned in a coronal direction at a thickness of 35 μm. The brain tissue slices were immersed in a storage solution (30% glycerol, 30% ethylene glycol, PBS) and stored at 4° C. The stored brain slices were permeabilized in 0.5% Triton X-100 for 20 minutes and shaken in 2 N HCl for 30 minutes at 37° C. Then, the brain slices were blocked in a free-floating state for 2 hours in 15% standard serum, 3% bovine serum albumin (BSA, bio-WORLD, Dublin, OH, USA) and 0.1% Triton X-100. The slices were shaken with a first antibody for 16 hours at 4° C. Thereafter, a second antibody complementary to the first antibody was attached at room temperature (22±1° C.) for 45 minutes. Then, the nuclei were washed with physiological saline (PBS) containing 1 μg/ml PI (propidiumiodide, Sigma) or DAPI (1:4000), and then placed on a slide glass and sealed using an aqueous mount, and observed under a confocal scanning microscope for tissue observation (LSM 810 Carl Zeiss, Oberkochen, Germany).
Brain slices segmented in a coronal direction were selected from the front to the back of the brain by one slice every 5 slices, and 5 to 11 slices for each animal's brain were co-stained with thioflavin-S and DAPI.
FIG. 7 is confocal scanning micrographs of the hippocampal dentate gyrus, and the entorhinal cortex and temporal lobe of the cerebral cortex, after staining senile plaques by treating the brain slice with Thioflavin-S, and FIG. 8 illustrates quantifying the entire area and staining intensity of the senile plaques stained with Thioflavin-S.

5xFAD transgenic mice [3] = assay: Autophagy indicators in brain (LC3/GFAP and LC3/MAP2 staining, LC3 immunoblot)
Method: as §1, §2
The first antibody used antibodies such as LC3-II (MBL, PM036), MAP2 (sigma, m4403) [for LC3/MAP2 double staining], 6E10 (biolegend, 803001) [for LC3/6E10; ICC double staining], GFAP (abcam, ab53554) [for LC3/GFAP double staining], Iba-1 (wako, 011-27991) [for LC3/IBA1 double staining], Iba-1 (Wako, 019-19741) [for ThioS/Iba1/PI triple staining], Sox2 (R&D system, MAB2018) [for SOX2/DCX/NeuN triple staining], DCX (Santa Cruz, sc8066) [for SOX2/DCX/NeuN triple staining], AT8 (Invitrogen, MN1020) [for AT8/MAP2 double staining], MAP2 (abcam, ab32454) [for AT8/MAP2 double staining], NeuN (Millipore, MAB377B), Tuj1 (Sigma, T8660), Nestin (Millipore, MAB353), GFAP (Chemicon), and the like, and the second antibody used Alexa 488, Cy3, Alexa 488 (Invitrogen, A21202), Cy3 (Jackson lab, 715-165-151), and Alexa 488 (Jackson lab, 711-546-152).
When PS1 was KO, lysosome acidification was weakened and autophagy was inhibited (Lee et al. (2010) Cell 141: 1146-1158), and in 5xFAD mice with mutations in PS1, the generation of autophagy was somewhat attenuated and may be activated in the presence of endogenous WT PS1. In other words, there were example in which cellular conditions that inhibit mTOR, such as lack of amino acids, or suppression of inflammation activated autophagy, and treatment with a cAMP or β-adrenergic agonist restored lysosomal acidification in PS1 mutant cells (Coffey et al. (2014) Neuroscience 263: 111-124). […]

[4] = compared to the 5xFAD-DMSO control group, FIG. 8

For `COc1cc(OC)c2c(=O)c3cc4c(cc3oc2c1)OCO4` [HN-1703, 7,9-dimethoxy-10H-[1,3]dioxolo[4,5-b]xanthen-10-one], the “water maze latency time after 4 days of training” value (5xFAD transgenic mice [1]) was “about 35 seconds”, the “reduction of senile plaques compared to the 5xFAD-DMSO group” value (5xFAD transgenic mice [2]; 20 mg/kg, dentate gyrus, FIG. 7) was at least 70% and the “senile plaques stained with Thioflavin-S” value (5xFAD transgenic mice [2]; 5 to 20 mg/kg, hippocampal dentate gyrus, entorhinal cortex, temporal lobe, FIG. 7) was “reduced in a dose-dependent manner”. For the same compound, the “number of senile plaques having sizes of 10 to 20 μm and 20 μm or more” value (5xFAD transgenic mice [2]; all brain regions tested, compared to the 5xFAD-DMSO control group, FIG. 8) was “decreased in a dose-dependent manner”, the “entire area of senile plaques” value (5xFAD transgenic mice [2]; [4]) was “decreased in a dose-dependent manner” and the “staining intensity of senile plaques” value (5xFAD transgenic mice [2]; [4]) was “decreased in a dose-dependent manner”. The LC3-II staining (5xFAD transgenic mice [3]; 5 mg/kg to 10 mg/kg, FIG. 12) was “stained at the level of a WT normal group”, the “LC3-II increase compared to the 5xFAD-DMSO control group” value (5xFAD transgenic mice [3]; 20 mg/kg, FIG. 12) was 2.5 times and the “LC3-II increase compared to the WT normal group” value (5xFAD transgenic mice [3]; 20 mg/kg, FIG. 12) was 1.4 times. For the same compound, the “LC3-II staining in the axon of the hippocampal pyramidal neuron” value (5xFAD transgenic mice [3]; 20 mg/kg, FIG. 13) was “recovered to the level of the WT normal group”, the “autophagic vacuoles near the nuclei of large neurons in the subgranular cell layer of the hippocampus” value (5xFAD transgenic mice [3]; FIG. 14) was “significantly increased” and the “ratio of the autophagy activation marker LC3-II/LC3-I (brain immunoblot)” value (5xFAD transgenic mice [3]; FIG. 15) was “increased”. The LC3-II staining (5xFAD transgenic mice [3]; hippocampal dentate gyrus, compared to a 5xFAD-DMSO control group, FIG. 12) was “increased in a dose-dependent manner” and the “astrocytes stained with the GFAP antibody” value (5xFAD transgenic mice [3]; increased in 5xFAD-DMSO vs WT, FIG. 12) was “decreased to a normal level”.
